# Source: patent US7070778B2, “Therapeutical combination against cancer” (Laboratoire Goemar SA, priority 2003, dated 2006)
# Test system: BT-474 human breast carcinoma
# Test: Effect on the tumor growth: BT-474 human breast carcinoma xenograft in nude mice
# Format: in vivo
# Settings: for Average daily weight of the tumor: Group 6: Paclitaxel 16 mg/kg i.p. once a day for 5 days
# Procedure: Female nude mice (nulnu) between 5 and 6 weeks of age weighing approximately 20 g were obtained from Harlan, Inc. (Madison, Wis.). The BT-474 human breast carcinoma cell line was obtained from the American Type Culture Collection (ATCC). BT-474 was established by E. Lasfargues and W. G. Coutinho from a solid carcinoma of the breast obtained from a patient (2). Twenty-one-day release 17β-estradiol pellets at 0.25 mg (Innovative Research of America) were implanted subcutaneously into each mouse. The following day, animals were implanted s.c. by trocar with fragments of human tumor carcinomas harvested from s.c. growing tumors in nude mice hosts. When the tumors were approximately 40 mg in size (24 days following inoculation), the animals were pair-matched into treatment and control groups. All of the groups contained 9 mice. All of the animals were ear-tagged and followed individually throughout the experiment.
# The mice of each group were administered intra peritoneally with 2 ml of the following composition:
# Group 1: (control) sterile H2O, 5 times a day
# Mice were weighed twice weekly, and tumor measurements were obtained using calipers twice weekly, starting on Day 1. These tumor measurements were converted to mg tumor weight by the standard formula, (W^2×L)/2 (2). The experiment was terminated when the control group tumor size reached an average of 500 mg. Upon termination (Day 46), the mice were weighed, sacrificed and their tumors were excised. The tumors were weighed, and the mean tumor weight per group was calculated.
# With this agent, the final weight of a given tumor was subtracted from its own weight at the start of treatment on Day 1. This difference was divided by the initial tumor weight to give the % regression. A mean % tumor regression was calculated from data from mice in a group that experienced tumor regressions.
structure (smiles),measurement,setting,value
CC(=O)O[C@H]1C(=O)[C@@]2(C)[C@H]([C@H](OC(=O)c3ccccc3)[C@]3(O)C[C@H](OC(=O)[C@H](O)[C@@H](NC(=O)c4ccccc4)c4ccccc4)C(C)=C1C3(C)C)[C@]1(OC(C)=O)CO[C@@H]1C[C@@H]2O [Paclitaxel],tumor regression (in words),Paclitaxel 16 mg/kg i.p. once a day for 5 days,caused tumor regression
same,Average daily weight of the tumor,day 5,3906 mg
same,Average daily weight of the tumor,day 9,54.2 mg
same,Average daily weight of the tumor,day 16,77.3 mg
same,Average daily weight of the tumor,day 19,79.4 mg
same,Average daily weight of the tumor,day 23,108.0 mg
same,Average daily weight of the tumor,day 26,123.8 mg
same,Average daily weight of the tumor,day 29,149.5 mg
same,Average daily weight of the tumor,day 32,188.8 mg
same,Average daily weight of the tumor,day 36,220.3 mg
same,Average daily weight of the tumor,day 39,244.8 mg
same,Average daily weight of the tumor,day 43,299.6 mg
same,Average daily weight of the tumor,day 46,376.3 mg
